Earlier results, collected in patent publication US20240335440A1, “COMBINATION THERAPY COMPRISING A PKC INHIBITOR AND A C-MET INHIBITOR” (IDEAYA BIOSCIENCES, INC., priority 2021, published 2024).
Like-named read-outs stand apart in the source and are kept apart here. Marks after values point to notes of the source that are not given here.

Experiments:
[1] = system: metastatic uveal melanoma (MUM); details: First-Line MUM (n = 31); oral capsules QD
[2] = system: metastatic uveal melanoma (MUM); details: Second-Line + MUM (n = 127)

COc1cc2nccc(Oc3ccc(NC(=O)C4(C(=O)Nc5ccc(F)cc5)CC4)cc3)c2cc1OC [Cabozantinib]
Tolerability (Grade ≥3 Drug-related AE) [1]: 51.6%

Tebentafusp: HLA-A2-0201 bi-specific AB, IV infusion (weekly), IMCgp100-102 study
Tolerability (Grade ≥3 Drug-related AE) ([2]; HLA-A2-0201 patients, IV infusion weekly): 46.5%
% Pts with tumor shrinkage ([2]; independent review): 44%^#
Overall response rate by RECIST 1.1 ([2]; independent review): 4.7%^#
Progression free survival (mPFS) ([2]; independent review): 2.8 mo.^#
